Values of other authors, collected in patent publication US20250019557A1, “INK SET AND INKJET RECORDING APPARATUS” (KYOCERA Document Solutions Inc., priority 2023, published 2025).

Settings: octanol/water partition coefficient; literature value, or calculated where none exists

SMILES | LogP
CC(O)CO (stereo not shown) [1,2-Propanediol] | −0.92
OCCCO [1,3-Propanediol] | −1.04
CC(CCO)CCO [3-Methyl-1,5-pentanediol] | 0.35
CCCCOCCOCCOCCO [Triethylene glycol monobutyl ether] | 0.44
